Measurements published in publication PMC7974150, “Backbone assignment of E. coli NfsB and the effects of addition of the cofactor analogue nicotinic acid” (Biomolecular Nmr Assignments, 2021).

Target: T1, E. coli nitroreductase NfsB (also called NfnB) (Escherichia coli, UniProt P38489)
T1 sequence (P38489 2-217): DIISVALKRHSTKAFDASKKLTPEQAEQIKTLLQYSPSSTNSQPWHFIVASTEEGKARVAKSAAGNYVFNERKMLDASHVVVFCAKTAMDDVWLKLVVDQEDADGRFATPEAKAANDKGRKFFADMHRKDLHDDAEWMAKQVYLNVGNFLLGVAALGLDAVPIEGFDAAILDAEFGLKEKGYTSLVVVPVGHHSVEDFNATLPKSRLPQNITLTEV
Assay: 1D 1H NMR titration, ligand proton shifts fitted to hyperbola
Type: binding
Details: read-out: Apparent Kd
Source text: 1D 1H NMR titration, ligand proton shifts fitted to hyperbola on E. coli nitroreductase NfsB (also called NfnB)

In the case of O=C(O)c1cccnc1 [nicotinate], the Kd is reported as 1900 ± 300 µM.
